Assay results published in patent US11339171B2, “MDM2 inhibitors” (Gan & Lee Pharmaceuticals, priority 2017, dated 2022).
Where “and” joins values, the source holds several entries; their conditions need not be identical. Identical values can stand only once. Like-named read-outs stand apart in the source and are kept apart here.

Tests used:
[1] = system: human osteosarcoma cell line SJSA-1; experiment: Inhibition of proliferation of human osteosarcoma cell line SJSA-1 (DAPI staining, In Cell Analyzer); conditions: Homo sapiens, SJSA-1, 72 h, read-out: IC50 (nM), inhibitory activity on proliferation of human osteosarcoma cell line SJSA-1, SJSA-1, incubated 72 h
MDM2 = target: T1, MDM2 (Homo sapiens, UniProt Q00987); experiment: Inhibition test of MDM2-P53 (GST-MDM2, Biotin-P53, Anti-GST-Tb, SA-XL665); assay type: binding
T1 construct: made in house
Summary of the method: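 HTRF-type assay using 4 nM GST-MDM2 (final), Biotin-P53, SA-XL665 and anti-GST-Tb in PBS with 0.1% BSA, 5 mM DTT and 1 mM AEBSF. Compounds in 5-fold serial dilutions over twelve points; incubation 90 min at 25° C with shaking before plate-reader read-out.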

[2] = Pharmacokinetics in ICR mice after intravenous and intragastric administration; assay type: in vivo; conditions: for F*: PO 5 mg/kg vs IV 2 mg/kg, mean; for Vd: read-out: Vz; for MRT last: read-out: MRT(0-t); for MRT inf: read-out: MRT(0-∞)
Summary of the method: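 Compounds were dissolved at 0.5 mg/ml in DMSO/PEG400/HP-β-CD saline vehicle and given to overnight-fasted male ICR mice, 2 mg/kg by vein or 5 mg/kg by gavage (n=3 each). Plasma was then protein-precipitated, assayed by LC-MS/MS, and PK parameters including oral bioavailability were derived.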

[3] = ICR mice, IV 2 mg/kg, individual animals 301-303, 2 mg/kg
[4] = ICR mice, PO 5 mg/kg, individual animals 401-403, 5 mg/kg
[5] = male, ICR, mouse, plasma, iv, 2 mg/kg, ICR mice, IV 2 mg/kg, individual animals 301-303, read-out: Cmax
[6] = male, ICR, mouse, plasma, iv, 2 mg/kg, ICR mice, IV 2 mg/kg, individual animals 301-303, read-out: Tmax
[7] = male, ICR, mouse, plasma, iv, 2 mg/kg, ICR mice, IV 2 mg/kg, individual animals 301-303
[8] = male, ICR, mouse, plasma, iv, 2 mg/kg, ICR mice, IV 2 mg/kg, mean of 3 animals
[9] = male, ICR, mouse, plasma, iv, 2 mg/kg, ICR mice, IV 2 mg/kg, mean of 3 animals, read-out: AUC(0-t)
[10] = male, ICR, mouse, plasma, iv, 2 mg/kg, ICR mice, IV 2 mg/kg, mean of 3 animals, read-out: Cmax
[11] = male, ICR, mouse, plasma, iv, 2 mg/kg, ICR mice, IV 2 mg/kg, mean of 3 animals, read-out: Tmax
[12] = male, ICR, mouse, plasma, iv, 2 mg/kg, ICR mice, IV 2 mg/kg, mean of 3 animals, read-out: t1/2 (converted)
[13] = male, ICR, mouse, plasma, po, 5 mg/kg, ICR mice, PO 5 mg/kg, individual animals 401-403
[14] = male, ICR, mouse, plasma, po, 5 mg/kg, ICR mice, PO 5 mg/kg, individual animals 401-403, read-out: AUC(0-t)
[15] = male, ICR, mouse, plasma, po, 5 mg/kg, ICR mice, PO 5 mg/kg, individual animals 401-403, read-out: Cmax
[16] = male, ICR, mouse, plasma, po, 5 mg/kg, ICR mice, PO 5 mg/kg, individual animals 401-403, read-out: Tmax
[17] = male, ICR, mouse, plasma, po, 5 mg/kg, ICR mice, PO 5 mg/kg, individual animals 401-403, read-out: t1/2 (converted)
[18] = male, ICR, mouse, plasma, po, 5 mg/kg, ICR mice, PO 5 mg/kg, mean of 3 animals
[19] = male, ICR, mouse, plasma, po, 5 mg/kg, ICR mice, PO 5 mg/kg, mean of 3 animals, read-out: AUC(0-t)
[20] = male, ICR, mouse, plasma, po, 5 mg/kg, ICR mice, PO 5 mg/kg, mean of 3 animals, read-out: Cmax
[21] = male, ICR, mouse, plasma, po, 5 mg/kg, ICR mice, PO 5 mg/kg, mean of 3 animals, read-out: Tmax
[22] = male, ICR, mouse, plasma, po, 5 mg/kg, ICR mice, PO 5 mg/kg, mean of 3 animals, read-out: t1/2 (converted)
[23] = male, ICR, mouse, plasma, po, 5 mg/kg, oral intragastric administration 5 mg/kg, read-out: AUC0-t

T1 sequence (Q00987 whole entry): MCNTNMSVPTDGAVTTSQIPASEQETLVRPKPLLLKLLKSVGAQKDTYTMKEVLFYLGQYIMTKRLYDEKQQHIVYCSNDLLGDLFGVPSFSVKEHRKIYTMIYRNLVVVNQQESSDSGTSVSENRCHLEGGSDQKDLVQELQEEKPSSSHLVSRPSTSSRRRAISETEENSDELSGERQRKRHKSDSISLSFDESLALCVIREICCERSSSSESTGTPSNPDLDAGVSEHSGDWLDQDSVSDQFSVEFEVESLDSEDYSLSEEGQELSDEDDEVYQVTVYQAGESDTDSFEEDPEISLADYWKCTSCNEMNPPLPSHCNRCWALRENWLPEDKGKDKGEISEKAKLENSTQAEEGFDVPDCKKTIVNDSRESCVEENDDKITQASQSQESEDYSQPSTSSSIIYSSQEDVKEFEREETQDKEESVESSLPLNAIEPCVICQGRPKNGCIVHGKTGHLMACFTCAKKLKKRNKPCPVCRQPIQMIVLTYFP

In the case of `COc1nc(OCCF)ncc1-c1nc2c(n1C(C)C)[C@@]1(C(=O)Nc3cc(Cl)ccc31)N(c1cc(Cl)ccc1C)C2=O` [Example S-140, (S)-6-chloro-5′-(5-chloro-2-methylphenyl)-2′-(2-(2-fluoroethoxy)-4-methoxypyrimidin-5-yl)-3′-isopropyl-3′H-spiro[dihydroindole-3,4′-pyrrolo[3,4-d]imidazole]-2,6′(5′H)-dione], the IC50 [1] is reported as 81.5 nM, the IC50 (MDM2) is reported as 1.06 nM and the “AUC(0-t)” value [2, 3] is reported as 9144.58 ng·h/mL and 19456.40 ng·h/mL and 11628.12 ng·h/mL. The CL [2, 3] was 3.37 mL/min/kg and 1.67 mL/min/kg and 2.26 mL/min/kg, the Cmax [2, 3] was 6627.89 ng/mL and 5215.16 ng/mL and the “MRT(0-t)” value [2, 3] was 1.58 h and 3.73 h and 1.94 h. For the same compound, the Vz [2, 3] was 0.61 L/kg and 0.52 L/kg, the t1/2 [2, 3] was 1.70 h and 4.19 h and 2.67 h and the “F*” value ([2]; ICR mice) was 72.11%. The “AUC(0-t)” value [2, 4] was 26053.96 ng·h/mL and 23914.34 ng·h/mL, the “AUC(0-∞)” value [2, 4] was 26994.24 ng·h/mL and 26699.24 ng·h/mL and the Cmax [2, 4] was 5947.01 ng/mL and 4972.85 ng/mL. For the same compound, the “MRT(0-t)” value [2, 4] was 2.67 h, the “MRT(0-∞)” value [2, 4] was 2.93 h and 3.85 h and the Tmax [2, 4] was 1.00 h. For the same compound, the t1/2 [2, 4] was 1.54 h and 2.38 h, the Cmax [2, 5] was 4540 ng/mL and the Tmax [2, 6] was 0.08 h. The Vd [2, 7] was 0.5 L/kg, the clearance [2, 8] was 2.43 mL/min/kg and the AUC(0-t) [2, 9] was 13400 ng·h/mL. The Cmax [2, 10] was 5460 ng/mL, the MRT last [2, 8] was 2.42 h and the Tmax [2, 11] was 0.083 h. The Vd [2, 8] was 0.54 L/kg, the half-life [2, 12] was 2.86 h and the AUC(0-t) ([2]; male, ICR, mouse, plasma, iv, 2 mg/kg, ICR mice, IV 2 mg/kg, mean of 3 animals, second AUC column (c5) of Table 26, read-out: AUC(0-t)) was 14900 ng·h/mL. It also gave an MRT last ([2]; male, ICR, mouse, plasma, iv, 2 mg/kg, ICR mice, IV 2 mg/kg, mean of 3 animals, second MRT column (c7) of Table 26) of 3.36 h, an AUC(0-inf) [2, 13] of 24700 ng·h/mL and an AUC(0-t) [2, 14] of 22600 ng·h/mL. For the same compound, the Cmax [2, 15] was 4250 ng/mL, the MRT last [2, 13] was 2.97 h and the MRT inf [2, 13] was 3.69 h. The Tmax [2, 16] was 2 h, the half-life [2, 17] was 2.19 h and the AUC(0-inf) [2, 18] was 26100 ng·h/mL. The AUC(0-t) [2, 19] was 24200 ng·h/mL, the Cmax [2, 20] was 5060 ng/mL and the MRT last [2, 18] was 2.87 h. For the same compound, the MRT inf [2, 18] was 3.49 h, the Tmax [2, 21] was 1.67 h and the half-life [2, 22] was 2.04 h. For the same compound, the AUC(0-t) [2, 23] was 24200 ng·h/mL and the half-life ([2]; male, ICR, mouse, plasma, po, 5 mg/kg, oral intragastric administration 5 mg/kg, read-out: half-life (converted)) was 2.04 h.

In the case of `COc1nc(C2CC2)ncc1-c1nc2c(n1C(C)C)[C@@]1(C(=O)Nc3cc(Cl)ccc31)N(c1cc(Cl)cnc1C)C2=O` [Example S-159, (S)-6-chloro-5′-(5-chloro-2-methylpyridin-3-yl)-2′-(2-cyclopropyl-4-methoxypyrimidin-5-yl)-3′-isopropyl-3′H-spiro[dihydroindole-3,4′-pyrrolo[3,4-d]imidazole]-2,6′(5′H)-dione], the IC50 [1] is reported as 34.2 nM, the IC50 (MDM2) is reported as 2.8 nM and the “AUC(0-t)” value [2, 3] is reported as 4456.51 ng·h/mL and 4501.92 ng·h/mL. The Cmax [2, 3] was 2591.90 ng/mL and 2457.53 ng/mL, the “MRT(0-t)” value [2, 3] was 1.45 h and 1.52 h and the “MRT(0-∞)” value [2, 3] was 2.00 h and 2.19 h. The Vz [2, 3] was 1.05 L/kg, the t1/2 [2, 3] was 1.75 h and the “F*” value ([2]; ICR mice) was 52.53%. The “AUC(0-t)” value [2, 4] was 5902.77 ng·h/mL and 6839.45 ng·h/mL, the “AUC(0-∞)” value [2, 4] was 6003.28 ng·h/mL and 7052.50 ng·h/mL and the Cmax [2, 4] was 1853.01 ng/mL and 1794.96 ng/mL. The “MRT(0-t)” value [2, 4] was 2.27 h and 2.45 h, the “MRT(0-∞)” value [2, 4] was 2.40 h and 2.68 h and the t1/2 [2, 4] was 1.28 h and 1.47 h. For the same compound, the AUC(0-inf) [2, 7] was 3720 ng·h/mL, the clearance [2, 7] was 17.9 mL/min/kg and the AUC(0-t) ([2]; male, ICR, mouse, plasma, iv, 2 mg/kg, ICR mice, IV 2 mg/kg, individual animals 301-303, read-out: AUC(0-t)) was 3600 ng·h/mL. The Cmax [2, 5] was 2540 ng/mL, the MRT last [2, 7] was 1.23 h and the MRT inf [2, 7] was 1.45 h. It also gave a Tmax [2, 6] of 0.08 h, a Vd [2, 7] of 0.95 L/kg and a half-life ([2]; male, ICR, mouse, plasma, iv, 2 mg/kg, ICR mice, IV 2 mg/kg, individual animals 301-303, read-out: t1/2 (converted)) of 1.22 h. For the same compound, the AUC(0-inf) [2, 8] was 4500 ng·h/mL, the clearance [2, 8] was 15.1 mL/min/kg and the AUC(0-t) [2, 9] was 4180 ng·h/mL. The Cmax [2, 10] was 2530 ng/mL, the MRT last [2, 8] was 1.4 h and the MRT inf [2, 8] was 1.88 h. For the same compound, the Tmax [2, 11] was 0.083 h, the Vd [2, 8] was 1.02 L/kg and the half-life [2, 12] was 1.61 h. It also gave an AUC(0-inf) [2, 13] of 3770 ng·h/mL, an AUC(0-t) [2, 14] of 3740 ng·h/mL and a Cmax [2, 15] of 1440 ng/mL. It also gave an MRT last [2, 13] of 1.9 h, an MRT inf [2, 13] of 1.95 h and a Tmax [2, 16] of 1 h. It also gave a half-life [2, 17] of 1.03 h, an AUC(0-inf) [2, 18] of 5610 ng·h/mL and an AUC(0-t) [2, 19] of 5500 ng·h/mL. For the same compound, the Cmax [2, 20] was 1700 ng/mL, the MRT last [2, 18] was 2.21 h and the MRT inf [2, 18] was 2.34 h. For the same compound, the Tmax [2, 21] was 1 h, the half-life [2, 22] was 1.26 h and the AUC(0-t) [2, 23] was 5500 ng·h/mL.
